Experimental data from patent US6274636A (priority 1999, dated 2001).

Key:
clinical subjects = test: clinical observation, pupil response; assay type: in vivo, human
[1] = tested on: muscarinic receptor subtype; test: in vivo animal and clinical observations, muscarinic receptor subtype profile
rats = test: in vivo animal observation, overdose in rats; conditions: rats exposed to an overdose
[2] = known; cited from earlier work
[3] = human clinical trials, safety profile; assay type: in vivo
[4] = detection of radiolabelled compound in saliva; assay type: in vivo
[5] = tested on: muscarinic cholinergic receptor; test: pharmacological studies, muscarinic cholinergic receptor activity
5-HT1C receptor = test: activity at the 5-HT1C receptor; conditions: anhydrous Form II

Row | Structure (SMILES) | pupilary response (clinical subjects) | muscarinic receptor subtype profile [1] | salivation (rats) | induction of extrapyramidal symptoms [2] | safety profile [3] | detection in the saliva [4] | muscarinic cholinergic receptor activity [5] | activity at the 5-HT1C receptor (5-HT1C receptor)
1 | Cc1cc2c(s1)Nc1ccccc1N=C2N1CCN(C)CC1 [2-methyl-4-(4-methyl-1-piperazinyl)-10H-thieno[2,3-b][1,5]benzodiazepine] | pupilary constriction rather than the expected pupilary dilation | complex muscarinic receptor subtype profile | significant salivation | less likely to induce extrapyramidal symptoms | favorable safety profile | can be detected in the saliva | has muscarinic cholinergic receptor activity | 
2 | Cc1cc2c(s1)Nc1ccccc1N=C2N1CCN(C)CC1 [anhydrous Form II, 2-methyl-4-(4-methyl-1-piperazinyl)-10H-thieno[2,3-b][1,5]benzodiazepine] |  |  |  |  |  |  |  | active
